Results: patent US11414398B2, “Selective organic cation transporters inhibitors for the treatment of depressive disorders” (priority 2017, dated 2022)

Tests used:
human OCT2 = molecular target: T1, human OCT2 (Homo sapiens, UniProt O15244); experiment: OCT inhibition in transfected cells ([3H]ASP+ uptake); assay type: cell-based
T1 construct: expressed in transfected cells; host or cells: COS cells
T1 sequence (O15244 1-555): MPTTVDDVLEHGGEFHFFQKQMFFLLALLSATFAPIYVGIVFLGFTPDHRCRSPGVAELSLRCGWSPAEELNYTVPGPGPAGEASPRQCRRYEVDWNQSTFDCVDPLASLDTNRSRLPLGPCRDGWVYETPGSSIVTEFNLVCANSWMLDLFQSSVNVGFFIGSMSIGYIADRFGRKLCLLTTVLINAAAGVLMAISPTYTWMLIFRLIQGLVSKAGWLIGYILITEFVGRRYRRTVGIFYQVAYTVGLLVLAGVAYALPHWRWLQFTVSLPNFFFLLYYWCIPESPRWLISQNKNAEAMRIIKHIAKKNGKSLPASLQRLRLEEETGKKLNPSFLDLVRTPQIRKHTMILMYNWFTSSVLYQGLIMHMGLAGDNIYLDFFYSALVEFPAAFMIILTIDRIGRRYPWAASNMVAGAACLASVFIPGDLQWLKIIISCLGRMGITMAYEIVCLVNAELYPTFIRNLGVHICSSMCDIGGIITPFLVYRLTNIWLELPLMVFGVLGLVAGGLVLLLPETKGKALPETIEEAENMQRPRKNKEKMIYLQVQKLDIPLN
From the text: Method. […] Tested concentrations: 1.10^−9; 3.10^−9; 1.10^−8; 3.10^−8; 1.10^−7; 3.10^−7; 1.10^−6; 3.10^−6 mol·L^−1.

alpha 1D adrenoceptors = molecular target: T2, alpha 1D adrenoceptors (Homo sapiens, UniProt P25100); experiment: Displacement of [3H]Prazosin binding in CHO cells (Eurofins); conditions: 0.2 nM [3H]Prazosin, 60 min, 22° C., human recombinant, read-out: inhibition of binding of specific ligand
T2 construct: host or cells: CHO cells
T2 sequence (P25100 1-572): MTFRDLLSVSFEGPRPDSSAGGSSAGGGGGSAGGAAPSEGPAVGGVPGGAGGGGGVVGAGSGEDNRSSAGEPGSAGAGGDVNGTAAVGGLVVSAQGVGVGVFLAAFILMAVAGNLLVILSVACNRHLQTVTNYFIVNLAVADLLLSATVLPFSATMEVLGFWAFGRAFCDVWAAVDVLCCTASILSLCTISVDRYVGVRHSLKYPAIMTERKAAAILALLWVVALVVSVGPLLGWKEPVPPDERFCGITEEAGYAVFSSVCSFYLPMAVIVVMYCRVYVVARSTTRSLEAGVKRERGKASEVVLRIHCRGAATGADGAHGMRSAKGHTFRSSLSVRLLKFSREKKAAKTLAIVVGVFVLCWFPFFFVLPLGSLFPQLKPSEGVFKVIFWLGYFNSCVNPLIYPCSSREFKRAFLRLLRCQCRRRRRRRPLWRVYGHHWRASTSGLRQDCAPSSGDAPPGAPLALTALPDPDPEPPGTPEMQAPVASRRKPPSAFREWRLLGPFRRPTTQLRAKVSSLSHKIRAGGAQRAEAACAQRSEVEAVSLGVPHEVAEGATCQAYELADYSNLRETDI
Experimental: (§1) Method. The displacement by compound (II-1) of binding of selective ligands of alpha adrenergic receptors 1D and 2C (0.2 nM [^3H]Prazosin and 2 nM [^3H]RX 821002, respectively) was evaluated for 60 min at 22° C. in CHO cells expressing the human recombinant adrenoceptors (Eurofins).

alpha 2C adrenoceptors = molecular target: T3, alpha 2C adrenoceptors (Homo sapiens, UniProt P18825); experiment: Displacement of [3H]RX 821002 binding in CHO cells (Eurofins); conditions: 2 nM [3H]RX 821002, 60 min, 22° C., human recombinant, read-out: inhibition of binding of specific ligand
T3 construct: host or cells: CHO cells
T3 sequence (P18825 1-462): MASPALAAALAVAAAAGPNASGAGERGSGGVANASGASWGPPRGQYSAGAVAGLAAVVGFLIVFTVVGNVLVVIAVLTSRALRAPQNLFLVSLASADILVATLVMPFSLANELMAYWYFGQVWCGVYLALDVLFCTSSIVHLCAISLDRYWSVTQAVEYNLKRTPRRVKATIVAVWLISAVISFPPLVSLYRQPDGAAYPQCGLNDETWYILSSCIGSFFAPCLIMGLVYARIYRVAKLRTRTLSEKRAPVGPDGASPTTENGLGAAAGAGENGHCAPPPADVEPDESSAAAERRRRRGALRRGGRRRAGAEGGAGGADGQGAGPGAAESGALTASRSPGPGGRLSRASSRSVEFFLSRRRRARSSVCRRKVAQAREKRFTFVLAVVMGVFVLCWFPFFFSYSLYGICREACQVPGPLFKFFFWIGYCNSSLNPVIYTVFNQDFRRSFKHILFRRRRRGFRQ
Experimental: as §1

COc1ccc2c(c1)C=C/C(=C/c1cc[n+](C(C)C)c3ccccc13)N2C(C)C.[I-] [II-1, (Z)-1-isopropyl-4-((1-isopropyl-6-methoxyquinolin-2(1H)-ylidene)methyl)quinolin-1-ium iodide]
IC50 less than that of D24 on human and rodent OCTs (human OCT2; hOCT2 IC50 versus literature D24 value): 3 to 4 fold
IC50 (human OCT2; uptake of [3H]ASP+ (5 μM) in COS cells transfected with human OCT2, 20 min, 37° C.): 82 nM
inhibition at 1 µM (alpha 1D adrenoceptors): 69%
inhibition at 1 µM (alpha 2C adrenoceptors): 66%
